Reference: patent US20220151982A1, “CANNABINOID COMPOSITIONS AND USE THEREOF” (priority 2019, published 2022)
Several values for one entry are separate records, joined by “and”; a condition that tells them apart may be missing. Equal values may be shown once. Read-outs that look alike come from different tables or passages of the source.

Legend:
[1] = system: resistant ovarian cancer cells (NAR); format: cell-based; details: 4 h exposure, XTT after 72 h
Experimental: (§1) A non-resistant ovarian cancer cells lines (OVCAR8) and a resistant ovarian cancer cells line (NAR) were exposed to various concentrations of Doxorubicin (Dox), Tetrahydrocannabinolic acid (THCa) and combinations thereof. The cells were exposed to the treatment agents for 4 hours, after which the media was replaced. Cell survival/death levels were measured after 72 hours by XTT. The percent of cell survival was determined as the absorbance signal with subtracted background (media only) and normalized by mock. Each experimental combination was performed in quadruplicate/pentaplicate.
as §1, with “cancer cells line (OVCAR8) and” for “cancer cells lines (OVCAR8) and”, “ovarian cancer cell line (NAR)” for “ovarian cancer cells line (NAR)”, “Doxorubicin (Dox), Cannabidiol (CBD) and combinations” for “Doxorubicin (Dox), Tetrahydrocannabinolic acid (THCa) and combinations”
as §1, with “The resistant” for “A non-resistant ovarian cancer cells lines (OVCAR8) and a resistant”, “(NAR) was” for “(NAR) were”, “of Taxol (Paclitaxel),” for “of Doxorubicin (Dox),”
as §1, with “The resistant” for “A non-resistant ovarian cancer cells lines (OVCAR8) and a resistant”, “(NAR) was” for “(NAR) were”, “of Cisplatin,” for “of Doxorubicin (Dox),”

[2] = system: NAR cell's efflux pumps; assay: Doxorubicin efflux into the media from pre-treated resistant cells; format: cell-based; details: NAR pre-treated with sub-lethal Doxorubicin; media with vs without cannabinoid, 5 minutes to 24 hours
Experimental: A resistant ovarian cancer cell line (NAR) was pre-treated with sub-lethal concentrations of Doxorubicin (Dox), and then incubated in media with and without THCa or CBD for time periods ranging from 5 minutes to 24 hours (a total of 12 time points were measured). The ability of the cells to efflux Dox into the media was measured and compared between the cells grown in the presence and absence of THCa (FIG. 8A) or CBD (FIG. 8B).

[3] = system: resistant pancreatic cancer cells (PANC-1); format: cell-based; details: 4 h exposure, XTT after 72 h
Experimental: as §1, with “A” for “A non-resistant ovarian cancer cells lines (OVCAR8) and a”, “pancreatic” for “ovarian”, “(PANC-1) was” for “(NAR) were”, “fluorouracil (5-FU),” for “various concentrations of Doxorubicin (Dox),”, “combination” for “combinations”

[4] = system: lung cancer resistant cells (NCI-H69/LX4); format: cell-based; details: 4 h exposure, XTT after 72 h
Experimental: as §1, with “multi-drug” for “non-resistant ovarian cancer cells lines (OVCAR8) and a”, “small cell lung” for “ovarian”, “(NCI-H69/LX4) was” for “(NAR) were”, “Vincristine,” for “various concentrations of Doxorubicin (Dox),”, “combination” for “combinations”

[5] = system: Methicillin-resistant Staphylococcus aureus (MRSA); assay: MRSA killing by CFU counting after 4 h incubation; details: for Percentage death of MRSA cells, Antibiotics alone: antibiotic at MIC value; for Percentage death of MRSA cells, Antibiotics + CBD (565 μM): antibiotic at MIC value + CBD 565 μM
[6] = system: non-resistant ovarian cancer cells (OVCAR8); assay: XTT cell survival/death, non-resistant ovarian cancer cells; format: cell-based; details: Doxorubicin 30 μM alone, 4 h exposure, XTT after 72 h
Experimental: as §1
as §1, with “cancer cells line (OVCAR8) and” for “cancer cells lines (OVCAR8) and”, “ovarian cancer cell line (NAR)” for “ovarian cancer cells line (NAR)”, “Doxorubicin (Dox), Cannabidiol (CBD) and combinations” for “Doxorubicin (Dox), Tetrahydrocannabinolic acid (THCa) and combinations”

[7] = system: resistant ovarian cancer cells (NAR); format: cell-based; details: CBN 674 or 270 μM added to Dox

CCCCCc1cc2c(c(O)c1C(=O)O)[C@@H]1C=C(C)CC[C@H]1C(C)(C)O2 [THCa, tetrahydrocannabinolic acid]
cell death ([1]; THCa 86 μM + Doxorubicin 30 μM): 64% | cell death ([1]; THCa 172 μM + Doxorubicin 30 μM): 86% | cell death ([1]; THCa 247 μM + Cisplatin 115 μM): 94% | cell death ([1]; THCa 247 μM + Taxol 50 μM): 94% | cell death ([1]; THCa 247 μM alone): 20% and 18% | decrease of Dox efflux levels [2]: ~50% | cell death ([3]; THCa 247 μM + 5-FU 2 μM): 77% | cell death ([3]; THCa 247 μM alone): 8% | cell death ([4]; THCa 247 μM + Vincristine 10 μM): 95% | cell death ([4]; THCa 247 μM alone): 12% | Percentage death of MRSA cells, THCa (88 μM) alone ([5]; Table 1, THCa 88 μM without antibiotic, 4 hours): 6%

O=C(O)c1cn(C2CC2)c2cc(N3CCNCC3)c(F)cc2c1=O [Ciprofloxacin]
Percentage death of MRSA cells, Antibiotics alone ([5]; Table 1, 4 hours): 14% | Percentage death of MRSA cells, Antibiotics + CBD (565 μM) ([5]; Table 2, 4 hours): 54% | Percentage death of MRSA cells, Antibiotics alone ([5]; Table 2, 4 hours): 14%

O=C(N[C@H](CO)[C@H](O)c1ccc([N+](=O)[O-])cc1)C(Cl)Cl [Chloramphenicol]
Percentage death of MRSA cells, Antibiotics alone ([5]; Table 1, 4 hours): 12% | Percentage death of MRSA cells, Antibiotics + CBD (565 μM) ([5]; Table 2, 4 hours): 58% | Percentage death of MRSA cells, Antibiotics alone ([5]; Table 2, 4 hours): 12%

CC[C@]1(O)C[C@H]2CN(CCc3c([nH]c4ccccc34)[C@@](C(=O)OC)(c3cc4c(cc3OC)N(C=O)[C@H]3[C@@](O)(C(=O)OC)[C@H](OC(C)=O)[C@]5(CC)C=CCN6CC[C@]43[C@@H]65)C2)C1 [Vincristine]
cell death ([4]; Vincristine 10 μM alone): 17%

COc1cccc2c1C(=O)c1c(O)c3c(c(O)c1C2=O)C[C@@](O)(C(=O)CO)C[C@@H]3O[C@H]1C[C@H](N)[C@H](O)[C@H](C)O1 [Doxorubicin]
cell death [6]: 94% | cell death ([1]; Doxorubicin 30 μM alone): 16% and 20% | cell death ([1]; Doxorubicin 30 μM alone, listed as Dox): 20%

CCCCCc1cc(O)c2c(c1)OC(C)(C)c1ccc(C)cc1-2 [CBN, Cannabinol]
effect on Dox toxicity (enhancement of cell death) [7]: did not significantly enhance cell death

O=c1[nH]cc(F)c(=O)[nH]1 [5-FU, fluorouracil]
cell death ([3]; 5-FU 2 μM alone): 14%

CN[C@H](CC(C)C)C(=O)N[C@H]1C(=O)N[C@@H](CC(N)=O)C(=O)N[C@H]2C(=O)N[C@H]3C(=O)N[C@H](C(=O)N[C@H](C(=O)O)c4cc(O)cc(O)c4-c4cc3ccc4O)[C@H](O)c3ccc(c(Cl)c3)Oc3cc2cc(c3O[C@@H]2O[C@H](CO)[C@@H](O)[C@H](O)[C@H]2O[C@H]2C[C@](C)(N)[C@H](O)[C@H](C)O2)Oc2ccc(cc2Cl)[C@H]1O [Vancomycin]
Percentage death of MRSA cells, Antibiotics alone ([5]; Table 1, 4 hours): 8% | Percentage death of MRSA cells, Antibiotics + CBD (565 μM) ([5]; Table 2, 4 hours): 61% | Percentage death of MRSA cells, Antibiotics alone ([5]; Table 2, 4 hours): 8%

Gentamycin
Percentage death of MRSA cells, Antibiotics + THCa (88 μM) [5]: 85% | Percentage death of MRSA cells, Antibiotics alone ([5]; Table 1, 4 hours): 15% | Percentage death of MRSA cells, Antibiotics + CBD (565 μM) ([5]; Table 2, 4 hours): 58% | Percentage death of MRSA cells, Antibiotics alone ([5]; Table 2, 4 hours): 15%

CN(C)[C@@H]1C(O)=C(C(N)=O)C(=O)[C@@]2(O)C(O)=C3C(=O)c4c(O)cccc4[C@@](C)(O)[C@H]3C[C@@H]12 [Tetracycline]
Percentage death of MRSA cells, Antibiotics alone ([5]; Table 1, 4 hours): 7% | Percentage death of MRSA cells, Antibiotics + CBD (565 μM) ([5]; Table 2, 4 hours): 42% | Percentage death of MRSA cells, Antibiotics + CBD (565 μM) ([5]; Table 2, 4 hours, listed as tetracycline): 42% | Percentage death of MRSA cells, Antibiotics alone ([5]; Table 2, 4 hours): 7%

N.N.[Cl][Pt][Cl] [Cisplatin]
cell death ([1]; Cisplatin 115 μM alone): 12%

CC(=O)O[C@H]1C(=O)[C@@]2(C)[C@H]([C@H](OC(=O)c3ccccc3)[C@]3(O)C[C@H](OC(=O)[C@H](O)[C@@H](NC(=O)c4ccccc4)c4ccccc4)C(C)=C1C3(C)C)[C@]1(OC(C)=O)CO[C@@H]1C[C@@H]2O [Taxol, Paclitaxel]
cell death ([1]; Taxol 50 μM alone): 23%

C=C(C)[C@@H]1CCC(C)=C[C@H]1c1c(O)cc(CCCCC)cc1O [CBD, 2-[(6R)-3-Methyl-6-prop-1-en-2-yl-lcyclohex-2-envyl]-5pentylbenzene-1,3-diol]
cell death ([1]; CBD 283 μM + Doxorubicin 30 μM): 35% | cell death ([1]; CBD 565 μM + Doxorubicin 30 μM): 75% | decrease of Dox efflux levels [2]: ~40% | Percentage death of MRSA cells, CBD (565 μM) alone ([5]; Table 2, CBD 565 μM without antibiotic, 4 hours): 9%

CO[C@H]1/C=C/O[C@@]2(C)Oc3c(C)c(O)c4c(O)c(c(/C=N/N5CCN(C)CC5)c(O)c4c3C2=O)NC(=O)/C(C)=C\C=C\[C@H](C)[C@H](O)[C@@H](C)[C@@H](O)[C@@H](C)[C@H](OC(C)=O)[C@@H]1C [Rifampicin]
Percentage death of MRSA cells, Antibiotics alone ([5]; Table 1, 4 hours): 17% | Percentage death of MRSA cells, Antibiotics + CBD (565 μM) ([5]; Table 2, 4 hours): 73% | Percentage death of MRSA cells, Antibiotics + CBD (565 μM) ([5]; Table 2, 4 hours, listed as rifampicin): 73% | Percentage death of MRSA cells, Antibiotics alone ([5]; Table 2, 4 hours): 17%
